Test results as given in US20090047365A1, “Novel Concomitant Use of Sulfonamide Compound with Anti-Cancer Agent” (Eisai R & D Management Co., Ltd., priority 2005, published 2009).
Several values for one entry are separate records, joined by “and”; a condition that tells them apart may be missing. Equal entries are not always repeated. Structures can show the parent of a compound that is named as a salt. Where two headings read alike, the source gives them in different places.

Assays:
HCT116 cells = assay: DNA microarray analysis (Example 8), correlation coefficients and hierarchical cluster analysis; assay type: cell-based, human; details: 24 hours treatment at twice the 50% growth inhibitory concentration, similarity among the compounds named together
Protocol: HCT116 cells were cultured in an RPMI-1640 medium supplemented with 10% fetal bovine serum, 100 units/ml penicillin and 100 μg/ml streptomycin. The following cultivation and compound treatment were carried out in an incubator at 5% CO2 and 37° C. HCT116 cells were seeded in 10 cm-diameter cell culture dishes at 2.0×10^6 cells/dish, cultured for 24 hours and subjected to the following compound treatment.
In this example, changes in the gene expression of HCT116 cells upon treatments with 12 compounds, i.e., E7820 (0.16 μM), E7070 (0.26 μM), LY186641 (59 μM), LY295501 (24 μM), LY-573636 (9.6 μM), CQS (4.0 μM), MST16 (100 μM), etoposide (3.6 μM), ethoxzolamide (410 μM), capsaicin (280 μM), trichostatin A (0.16 μM) and kenpaullone (7.1 μM) were examined.
The concentration of each compound used for the treatment was set to twice the 50% growth inhibitory concentration of each compound to the HCT116 cells (based on three days of antiproliferatrive activity using MTT). The cells were collected 24 hours after the treatment at the concentration indicated in parentheses following each compound name above. Similarly, cells cultured for 24 hours without the addition of any compound were also collected.
Total RNA extraction from the collected cells was performed using TRIZOL reagent (Invitrogen) according to the attached instruction.
Gene expression analysis using a DNA microarray was carried out in the same manner as “(2) Analysis of gene expression using DNA microarray” in Example 7.
This example was conducted for each sample in duplicate (for the convenience of the experiment, samples were given branch numbers like control-1, control-2, E7070-1, E7070-2 and so on for distinction). Then, GeneChip (Affymetrix) system (Human Focus array) was used for analyzing changes in the gene expression induced by each compound.
Twenty-six “.cel” files obtained in this example (13 samples (a control+12 compounds)×2) were subjected to RMA method (robust multi-array average method (Biostatistics (2003), 4, 249-264)) for normal distribution at probe level, and then the logarithm value of the signal intensity at gene level was calculated. Next, the logarithm value of the signal intensity of the untreated group (control-1) was subtracted from the logarithm value of the signal intensity of the compound-treated group for each gene to obtain the logarithm value of the signal ratio of the compound-treated group to control-1. Then, cosine correlation coefficients were calculated as correlation coefficients between the experiments (FIG. 5). Based on these correlation coefficients, hierarchical cluster analysis was performed according to UPGMA method (Unweighted Pair Group Method with Arithmetic mean method) (FIG. 6). Control-2 was also subjected to similar calculation (FIGS. 7 and 8). The softwares used were R 2.0.1 (http://www.r-project.org/) and affy package 1.5.8 (http://www.bioconductor.org).

[1] = test system: Human umbilical vein endothelial cell (HUVEC); assay: vascular endothelial cell lumen formation assay (in vitro), combinational use of E7820 and anti-cancer drug; assay type: cell-based
Protocol: Four-hundred μl of type I collagen gel (Nitta Gelatin) was dispensed in a 24-well plate (FALCON) and left in a CO2 incubator at 37° C. for 40 minute for gelatinization. A serum-free medium (Human endothelial-SFM Basal Growth Medium, Invitrogen) containing 20 ng/ml EGF (GIBCO BRL) was prepared. Two-hundred μl of this solution was dispensed in the wells containing type I collagen gel. Human umbilical vein endothelial cell (HUVEC) line was suspended in a serum-free medium (Human endothelial-SFM Basal Growth Medium, GIBCO BRL) to prepare 5×10^5 cells/ml cell suspension. Two-hundred μl of this suspension was seeded on the wells containing the type I collagen gel and the serum-free medium and cultured overnight.
On the following day, the wells were overlaid with 400 μl of type I collagen gel and left in a CO2 incubator at 37° C. for 3 hours for gelatinization. Then, the serum-free media (containing 10 ng/ml EGF and 20 ng/ml VEGF (Genzyme Techne Corp.)) containing E7820 alone, containing an anti-cancer drug alone and containing both E7820 and the anti-cancer drug for combinational use were added for 1.5 ml each and further cultured in a CO2 incubator at 37° C. for 3 days.
After the cultivation, 400 μl of 3.3 mg/ml MTT (SIGMA) solution was dispensed in the wells and reacted in a CO2 incubator at 37° C. for 3 hours for the cells to develop color.

[2] = test system: Human umbilical vein endothelial cells; assay: vascular endothelial cell proliferation assay (in vitro), combinational use of E7820 and anti-cancer drug; assay type: cell-based
Protocol: These diluted solutions were added to the cultured wells for 100 μl/well for further cultivation.

HCT116-C9 = assay: cell growth inhibition assay (MTT), parent line of E7070-resistant lines; assay type: cell-based, human; details: HCT116-C9, 72 hours, Example 11, read-out: antiproliferative activity IC50
Protocol: An E7070-resistant cell line was used to assess the antiproliferative activities of E7820, LY186641, LY295501, LY-ASAP and CQS. HCT116-C9 was a substrain separated from human colon cancer-derived HCT116 (American Type Culture Collection, Manassas, Va., U.S.A.). This HCT116-C9 was cultured in the presence of E7070 while incrementally increasing the E7070 concentration, thereby obtaining E7070-resistant substrains HCT116-C9-C1 and HCT116-C9-C4 (Molecular Cancer Therapeutics, 2002, 1, 275-286).
Three cell lines, i.e., HCT116-C9, HCT116-C9-C1 and HCT116-C9-C4, were each seeded at 3000 cells/well onto a 96-well microplate (flat bottom) (50 μl/well). Twenty-four hours later, they were added with a 3-fold dilution series of each compound (50 μl/well). Seventy-two hours later, the antiproliferative activities were assessed by MTT method (Mossmann T., J. Immunol. Methods, 1983, 65, 55-63). The 50% growth inhibitory concentrations to the cancer cells were obtained by a least square method.
In exactly the same manner as in Example 10, an E7070-resistant cell line was used to assess the antiproliferative activities of LY573636 as well as those of E7070.

[3] = combined with E7820, fa 0.8, HUVEC proliferation
[4] = combined with E7820, fa 0.9, HUVEC proliferation
[5] = combined with E7820, fa 0.7, HUVEC proliferation
[6] = combined with E7820, fa 0.95, HUVEC proliferation
[7] = combined with E7820, fa 0.6, HUVEC proliferation

Compound | changes in gene expression (correlation coefficients, hierarchical cluster analysis) (HCT116 cells) | Combined effect ([1]; combined with E7820, fa 0.3) | Combined effect ([1]; combined with E7820, fa 0.4) | Combined effect ([1]; combined with E7820, fa 0.5) | Combined effect ([1]; combined with E7820, fa 0.6) | Combined effect ([1]; combined with E7820, fa 0.7) | Combined effect ([1]; combined with E7820, fa 0.8) | Combined effect ([1]; combined with E7820, fa 0.9) | Combined effect ([1]; combined with E7820, fa 0.95) | Combined effect [2, 3] | Combined effect [2, 4] | Combined effect [2, 5] | Combined effect [2, 6] | other results
O=C(Nc1ccc(Cl)cc1)NS(=O)(=O)c1ccc2c(c1)CCC2 [LY186641, N-[[(4-chlorophenyl)amino]carbonyl]-2,3-dihydro-1H-indene-5-sulfonamide] | very similar genetic alterations | – | – | – | – | – | – | – | – | – | – | – | – | –
Nc1ccn([C@@H]2O[C@H](CO)[C@@H](O)C2(F)F)c(=O)n1 [Gemcitabine, 2′-deoxy-2′,2′-difluoro-cytidine hydrochloride] | – | Synergistic | Synergistic | Synergistic | Synergistic | Synergistic | Synergistic | Synergistic | Synergistic | Synergistic | Synergistic | – | – | –
NS(=O)(=O)c1ccc(S(=O)(=O)Nc2cccc3c(Cl)c[nH]c23)cc1 [E7070, N-(3-chloro-1H-indole-7-yl)-4-sulfamoylbenzenesulfonamide] | very similar genetic alterations | – | – | – | – | – | – | – | – | – | – | – | – | IC50 (HCT116-C9): 127 nM
Nc1ccc(S(=O)(=O)Nc2cnc3c(Cl)cccc3n2)cc1 [CQS, 2-sulfanylamide-5-chloroquinoxaline] | very similar genetic alterations | – | – | – | – | – | – | – | – | – | – | – | – | –
CC(=O)O[C@H]1C(=O)[C@@]2(C)[C@H]([C@H](OC(=O)c3ccccc3)[C@]3(O)C[C@H](OC(=O)[C@H](O)[C@@H](NC(=O)c4ccccc4)c4ccccc4)C(C)=C1C3(C)C)[C@]1(OC(C)=O)CO[C@@H]1C[C@@H]2O [Paclitaxel, (−)-(1S, 2R, 3S, 4S, 5R, 7S, 8S, 10R, 13S)-4,10-diacetoxy-2-benzoyloxy-5,20-epoxy, 1,7-dihydroxy-9-oxotax-11-en-13-yl (2S,3S)-3-benzoylamino-2-hydroxy-3-phenylpropionate] | – | – | – | – | – | Synergistic | Synergistic | Synergistic | Synergistic | Synergistic | Synergistic | Synergistic | Synergistic | –
CCc1c2c(nc3ccc(O)cc13)-c1cc3c(c(=O)n1C2)COC(=O)[C@]3(O)CC [SN38, 7-ethyl-10-hydro-(20)S-Camptothecin] | – | Synergistic | Synergistic | Synergistic | Synergistic | Synergistic | Synergistic | Synergistic | Synergistic | Synergistic | Synergistic | Synergistic | Synergistic | Combination index (CI) [2]: 0.6 and 0.5 and 0.8; Combined effect [2, 7]: Synergistic
10-[(3-amino-2,3,6-trideoxy-α-L-lyxo-hexopyranosyl)oxy]-7,8,9,10-tetrahydro-6,8,11-tri hydroxy-8-(hydroxyacetyl)-1-methoxy-(8S-cis)-5,12-naphthacenedione [Doxorubicin] | – | Synergistic | Synergistic | Synergistic | Synergistic | Synergistic | Synergistic | Synergistic | Synergistic | Synergistic | Synergistic | Synergistic | Synergistic | Combined effect ([1]; combined with E7820, fa 0.2): Synergistic; Combined effect [2, 7]: Synergistic
O=C(Nc1ccc(Cl)c(Cl)c1)NS(=O)(=O)c1ccc2c(c1)CCO2 [LY295501, N-[[(3,4-dichlorophenyl)amino]carbonyl]-2,3-dihydrobenzofuran-5-sulfonamide] | very similar genetic alterations | – | – | – | – | – | – | – | – | – | – | – | – | –
O=C(NS(=O)(=O)c1ccc(Br)s1)c1ccc(Cl)cc1Cl [LY573636, N-(2,4-dichlorobenzoyl)-5-bromothiophene-2-sulfonamide] | very similar genetic alterations | – | – | – | – | – | – | – | – | – | – | – | – | –
N.N.[Cl][Pt][Cl] [Cisplatin, cis-diamminedichloroplatinum II] | – | Synergistic | Synergistic | Synergistic | Synergistic | Synergistic | Synergistic | Synergistic | Synergistic | Synergistic | Synergistic | Synergistic | Synergistic | Combination index (CI) ([1]; combined with E7820, fa 0.05): 0.7; Combined effect ([1]; combined with E7820, fa 0.05): Synergistic; Combination index (CI) ([1]; combined with E7820, fa 0.1): 0.6; Combined effect ([1]; combined with E7820, fa 0.1): Synergistic; Combination index (CI) ([1]; combined with E7820, fa 0.2): 0.6; Combined effect ([1]; combined with E7820, fa 0.2): Synergistic; Combination index (CI) ([1]; combined with E7820, fa 0.3): 0.6; Combination index (CI) ([1]; combined with E7820, fa 0.4): 0.5; Combination index (CI) ([1]; combined with E7820, fa 0.5): 0.5; Combination index (CI) ([1]; combined with E7820, fa 0.6): 0.5; Combination index (CI) ([1]; combined with E7820, fa 0.7): 0.5; Combination index (CI) ([1]; combined with E7820, fa 0.8): 0.5; Combination index (CI) ([1]; combined with E7820, fa 0.9): 0.5; Combination index (CI) ([1]; combined with E7820, fa 0.95): 0.4; Combined effect [2, 7]: Synergistic; Combination index (CI) [2, 5]: 0.7; Combination index (CI) [2, 3]: 0.5; Combination index (CI) [2, 4]: 0.4; Combination index (CI) [2, 6]: 0.3; Combination index (CI) ([2]; combined with E7820, fractional inhibition (fa) 0.6, HUVEC proliferation): 0.9
CN(Cc1cnc2nc(N)nc(N)c2n1)c1ccc(C(=O)N[C@@H](CCC(=O)O)C(=O)O)cc1 [Methotrexate, N-{4-[N-(2,4-diaminopteridin-6-ylmethyl)-N-methylamino]benzoyl}-L-glutamic acid] | – | – | – | – | – | – | – | – | – | – | Synergistic | – | Synergistic | –
